Literature values, collected in publication PMC9851200, “Multiparameter phenotypic screening for endogenous TFEB and TFE3 translocation identifies novel chemical series modulating lysosome function” (Autophagy, 2022).

Experiments:
Design in all cases: method as in original PKIS2 published data
[1] = molecular target: T1, kinases (KINOMEscan panel) (Homo sapiens, UniProt O15197); details: kinase EPHB6; Published KINOMEscan; ref original PKIS2 published data; cited from earlier work
T1 sequence (O15197 32-1021): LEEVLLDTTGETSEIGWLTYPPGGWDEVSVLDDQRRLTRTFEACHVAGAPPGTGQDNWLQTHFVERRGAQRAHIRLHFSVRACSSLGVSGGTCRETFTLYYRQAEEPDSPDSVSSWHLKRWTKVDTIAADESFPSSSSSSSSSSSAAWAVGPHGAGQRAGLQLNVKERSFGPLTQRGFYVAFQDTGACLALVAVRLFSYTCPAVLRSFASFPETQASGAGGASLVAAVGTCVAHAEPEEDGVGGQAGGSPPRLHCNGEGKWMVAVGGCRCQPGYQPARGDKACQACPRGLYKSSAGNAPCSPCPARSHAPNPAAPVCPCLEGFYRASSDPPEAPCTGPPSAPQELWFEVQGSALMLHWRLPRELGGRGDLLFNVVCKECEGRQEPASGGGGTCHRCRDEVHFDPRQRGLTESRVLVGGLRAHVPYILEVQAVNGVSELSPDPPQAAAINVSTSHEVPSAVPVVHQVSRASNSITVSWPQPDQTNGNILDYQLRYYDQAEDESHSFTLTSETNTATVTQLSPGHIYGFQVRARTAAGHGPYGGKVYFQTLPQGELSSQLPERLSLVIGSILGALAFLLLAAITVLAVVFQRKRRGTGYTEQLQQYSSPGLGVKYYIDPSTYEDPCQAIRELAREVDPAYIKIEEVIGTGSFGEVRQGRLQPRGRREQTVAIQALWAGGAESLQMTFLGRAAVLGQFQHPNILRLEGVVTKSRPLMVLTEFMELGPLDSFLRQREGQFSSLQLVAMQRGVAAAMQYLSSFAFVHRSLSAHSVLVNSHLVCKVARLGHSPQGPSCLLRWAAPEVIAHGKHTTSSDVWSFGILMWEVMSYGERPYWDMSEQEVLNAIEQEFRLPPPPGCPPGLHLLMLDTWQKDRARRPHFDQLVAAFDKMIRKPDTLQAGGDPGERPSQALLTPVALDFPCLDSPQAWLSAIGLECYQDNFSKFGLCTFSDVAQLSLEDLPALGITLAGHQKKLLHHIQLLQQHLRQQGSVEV

[2] = molecular target: kinases (KINOMEscan panel) (Homo sapiens, UniProt Q8TDX7); details: NEK7; Published KINOMEscan; ref original PKIS2 published data; cited from earlier work
Chain of kinases (KINOMEscan panel) (Homo sapiens, UniProt Q8TDX7) (Q8TDX7 whole entry): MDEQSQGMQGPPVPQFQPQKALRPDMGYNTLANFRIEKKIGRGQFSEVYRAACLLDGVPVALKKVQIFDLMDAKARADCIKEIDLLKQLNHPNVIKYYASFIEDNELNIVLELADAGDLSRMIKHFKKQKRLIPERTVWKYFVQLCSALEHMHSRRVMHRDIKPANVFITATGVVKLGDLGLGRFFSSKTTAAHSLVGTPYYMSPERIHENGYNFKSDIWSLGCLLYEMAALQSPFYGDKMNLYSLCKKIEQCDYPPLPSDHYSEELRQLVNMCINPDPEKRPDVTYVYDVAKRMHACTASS

[3] = molecular target: T2, kinases (KINOMEscan panel) (Homo sapiens, UniProt Q6P3R8); details: kinase NEK5; Published KINOMEscan; ref original PKIS2 published data; cited from earlier work
T2 sequence (Q6P3R8 1-708): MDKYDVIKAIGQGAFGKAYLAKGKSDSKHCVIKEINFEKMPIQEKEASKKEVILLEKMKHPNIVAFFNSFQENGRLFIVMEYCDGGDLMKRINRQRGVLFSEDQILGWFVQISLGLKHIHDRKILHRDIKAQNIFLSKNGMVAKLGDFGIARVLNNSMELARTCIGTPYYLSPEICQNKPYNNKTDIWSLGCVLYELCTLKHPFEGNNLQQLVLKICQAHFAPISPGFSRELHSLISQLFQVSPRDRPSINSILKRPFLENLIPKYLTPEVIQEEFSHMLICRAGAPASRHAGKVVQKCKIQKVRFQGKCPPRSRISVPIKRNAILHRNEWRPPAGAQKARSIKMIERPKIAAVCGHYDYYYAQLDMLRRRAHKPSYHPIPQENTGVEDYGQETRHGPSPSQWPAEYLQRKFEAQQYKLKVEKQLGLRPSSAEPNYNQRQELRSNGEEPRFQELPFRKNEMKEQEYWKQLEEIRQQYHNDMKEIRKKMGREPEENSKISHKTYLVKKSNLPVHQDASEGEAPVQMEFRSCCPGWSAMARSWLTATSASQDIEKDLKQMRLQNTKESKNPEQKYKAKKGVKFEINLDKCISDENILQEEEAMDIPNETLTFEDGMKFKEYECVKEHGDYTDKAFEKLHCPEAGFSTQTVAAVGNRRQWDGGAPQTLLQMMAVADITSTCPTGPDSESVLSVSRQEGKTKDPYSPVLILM

[4] = molecular target: T3, kinases (KINOMEscan panel) (Homo sapiens, UniProt P25098); details: Published KINOMEscan; ref original PKIS2 published data; cited from earlier work
T3 sequence (P25098 1-689): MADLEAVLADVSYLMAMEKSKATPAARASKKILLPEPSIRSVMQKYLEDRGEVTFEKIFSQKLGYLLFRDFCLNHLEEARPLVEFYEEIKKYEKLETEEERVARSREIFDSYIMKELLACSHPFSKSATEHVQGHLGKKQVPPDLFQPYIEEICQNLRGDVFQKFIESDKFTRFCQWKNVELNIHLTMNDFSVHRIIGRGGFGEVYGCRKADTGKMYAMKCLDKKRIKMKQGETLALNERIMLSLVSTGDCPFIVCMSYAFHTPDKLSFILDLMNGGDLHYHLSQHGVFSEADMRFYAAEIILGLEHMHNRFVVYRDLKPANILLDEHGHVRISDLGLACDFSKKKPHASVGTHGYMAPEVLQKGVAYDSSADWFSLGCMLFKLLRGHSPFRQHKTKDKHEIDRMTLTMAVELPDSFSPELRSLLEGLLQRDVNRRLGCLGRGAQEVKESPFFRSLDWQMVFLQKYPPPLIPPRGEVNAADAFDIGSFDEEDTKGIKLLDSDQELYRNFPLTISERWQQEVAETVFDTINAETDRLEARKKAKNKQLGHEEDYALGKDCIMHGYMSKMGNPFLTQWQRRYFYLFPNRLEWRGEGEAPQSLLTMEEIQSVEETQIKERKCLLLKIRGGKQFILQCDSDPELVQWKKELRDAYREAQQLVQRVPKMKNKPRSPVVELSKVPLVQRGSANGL

[5] = molecular target: kinases (KINOMEscan panel) (Homo sapiens, UniProt O75460); details: Published KINOMEscan; ref original PKIS2 published data; cited from earlier work
Chain of kinases (KINOMEscan panel) (Homo sapiens, UniProt O75460) (O75460 19-977): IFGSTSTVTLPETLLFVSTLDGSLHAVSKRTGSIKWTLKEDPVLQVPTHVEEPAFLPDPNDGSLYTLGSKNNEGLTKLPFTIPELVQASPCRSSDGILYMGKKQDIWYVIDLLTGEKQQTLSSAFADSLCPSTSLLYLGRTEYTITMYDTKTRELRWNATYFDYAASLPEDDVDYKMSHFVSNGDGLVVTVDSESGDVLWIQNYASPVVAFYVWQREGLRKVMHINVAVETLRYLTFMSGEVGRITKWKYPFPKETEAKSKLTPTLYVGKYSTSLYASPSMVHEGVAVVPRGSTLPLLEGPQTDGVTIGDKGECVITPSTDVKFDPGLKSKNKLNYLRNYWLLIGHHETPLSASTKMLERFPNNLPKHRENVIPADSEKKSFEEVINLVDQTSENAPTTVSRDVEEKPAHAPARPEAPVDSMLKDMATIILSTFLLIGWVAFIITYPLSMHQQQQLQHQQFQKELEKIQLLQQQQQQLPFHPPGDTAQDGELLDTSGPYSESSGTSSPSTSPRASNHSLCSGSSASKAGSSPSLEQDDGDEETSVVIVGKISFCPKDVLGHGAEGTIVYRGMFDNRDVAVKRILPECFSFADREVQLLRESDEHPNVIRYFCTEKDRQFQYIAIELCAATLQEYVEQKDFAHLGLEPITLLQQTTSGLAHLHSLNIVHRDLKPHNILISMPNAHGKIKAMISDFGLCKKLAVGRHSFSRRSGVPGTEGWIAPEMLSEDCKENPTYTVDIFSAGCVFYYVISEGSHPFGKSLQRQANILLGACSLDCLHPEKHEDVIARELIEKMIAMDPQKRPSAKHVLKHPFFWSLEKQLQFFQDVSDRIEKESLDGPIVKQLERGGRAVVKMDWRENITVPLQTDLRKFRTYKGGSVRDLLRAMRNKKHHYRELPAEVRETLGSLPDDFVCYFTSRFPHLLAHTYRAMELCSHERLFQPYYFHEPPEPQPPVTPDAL

In the case of `Cc1cccc(-c2nc(Nc3ccncc3)c3ccccc3n2)n1` [NK215], the “KINOMEscan EPHB6” value [1] is given as 0, the “KINOMEscan NEK7” value [2] is given as 0 and the “KINOMEscan NEK5” value [3] is given as 10. The “KINOMEscan GRK2” value [4] was 0 and the “KINOMEscan ERN1” value [5] was 0.
